From US12398119B2, “Piperazine azaspiro derivatives” (PFIZER INC., priority 2018, dated 2025)
Like-named read-outs stand apart in the source and are kept apart here.

Molecular target: T1, Human M4 mAChR (Homo sapiens, UniProt P08173)
T1 construct: host or cells: HEK293 (Sor-L9 HEK293 human/M4/GloSensor Cell Clone Number 40)
T1 sequence (P08173 1-479): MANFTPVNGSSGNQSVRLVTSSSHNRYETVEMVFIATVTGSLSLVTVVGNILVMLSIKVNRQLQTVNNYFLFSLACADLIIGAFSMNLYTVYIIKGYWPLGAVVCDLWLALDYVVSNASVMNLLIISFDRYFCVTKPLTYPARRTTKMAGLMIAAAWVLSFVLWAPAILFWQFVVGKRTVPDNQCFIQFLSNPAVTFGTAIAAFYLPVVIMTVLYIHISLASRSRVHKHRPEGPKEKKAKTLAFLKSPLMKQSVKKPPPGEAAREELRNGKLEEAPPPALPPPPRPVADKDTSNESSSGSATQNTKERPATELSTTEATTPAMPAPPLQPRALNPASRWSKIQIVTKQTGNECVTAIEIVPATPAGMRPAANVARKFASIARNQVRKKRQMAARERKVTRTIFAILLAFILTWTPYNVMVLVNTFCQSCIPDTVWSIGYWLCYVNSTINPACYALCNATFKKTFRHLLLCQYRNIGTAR
Assay: Muscarinic hM4 Agonist GloSensor cAMP Assay
Format: cell-based
Procedure: Muscarinic hM4 Agonist GloSensor cAMP Assay Methods
Compounds were prepared in advance of the assay. Test compounds were solubilized in 100% dimethyl sulfoxide (DMSO, Sigma D8418) to a concentration of 30 mM. A 10-point intermediate dilution series using half log dilutions was created in 100% DMSO with a top concentration of 4 mM. The serially diluted compounds were spotted as 200 nL/well in a 384-well plate (Matrix Catalog Number 4325). The final compound concentration range in the assay was […] to 0.3 nM with a final DMSO concentration of 0.25%.
Human M4 mAChR expressing stable cell lines were generated using a parental HEK cell expressing the GloSensor construct (Promega Sor-L9 HEK293 human/M4/GloSensor Cell Clone Number 40). The cells were grown in 90% Dulbecco's Modified Eagle Medium (DMEM, Gibco 11960), 10% fetal bovine serum (FBS, Hyclone CH.30160-03), 1% Penicillin/Streptomycin (Gibco 15070-063), 500 µg/mL Geneticin (Gibco 10131-027), 200 µg/mL Hygromycin B (Invitrogen 10687-010) and 1% Glutamax (Thermo Fisher 35050061).
One day prior to assay, the cells were lifted using dissociation buffer (Gibco 13151-014) and spun in a centrifuge at 250 times gravity for 5 minutes at room temperature. Supernatant was removed and the cell pellet was resuspended in growth media to a concentration of […]. Cells were then added to white poly-d-lysine coated plates (Becton Dickinson 356661) as 40 μL per well (25,000 cells) and incubated overnight (20-24 hours) in a 37° C. humidified incubator with 5% carbon dioxide (C02).
The following day, culture media was removed from the cell plates and replaced with […] equilibration medium containing 88% CO2-independent medium (Invitrogen 18045088), 10% FBS and 2% GloSensor cAMP reagent (Promega E1291) that had been warmed to 37° C. Plates were then covered and incubated for 2 hours at room temperature while protected from light.
To the previously prepared serially diluted compound plates, 200 nL of 4 mM ACh (Sigma A2661, 10 μM final) or 200 nL of 100% DMSO (0.25% final) was added to the positive and negative control wells, respectively. Compound plates were then diluted by adding 16 μL of C02-independent media containing 10% FBS and an EC80 concentration of isoproterenol (Sigma 16504). Prior to compound testing, concentration response curves were run for isoproterenol to determine the EC80 concentration. At the end of the 2 hour equilibration, 10 µL was transferred from the compound plates to the cell plates. The cell plates were incubated an additional 7 minutes at room temperature and then read using a Multi-label EnVision plate reader (Perkin Elmer) for luminescence.
The raw data, expressed as relative light units, was analyzed using Activity Base (IDBS). The percent effect at each compound concentration was calculated based on and relative to the amount of cAMP produced by the positive and negative control wells contained on each assay plate. The positive control wells contained an EC100 concentration of ACh and the negative control wells contained only DMSO. The concentration and % effect values were fit using a four-parameter logistic dose response equation, and the concentration required for 50% effect (EC50) was determined as well as the maximum asymptote of the concentration response curve to define the efficacy.

[1] = HEK293 human/M4/GloSensor cells, EC80 isoproterenol, geometric mean, number of determinations in parentheses, read-out: EC50
[2] = Emax: maximum asymptote of concentration response curve, relative to ACh positive control (EC100) and DMSO, geometric mean, read-out: % maximum effect
[3] = enantiomers reported in footnotes to Table 1, number of determinations in parentheses, read-out: M4 EC50
[4] = enantiomers reported in footnotes to Table 1, number of determinations in parentheses, read-out: M4 Emax

EC50 [1] | Emax [2] | EC50 [3] | Emax [4] | Structure (SMILES)
> 10000 nM | – | – | – | CCOC(=O)N1CC2(CCC(N3CCN(c4ncccc4-c4cnc(OC)cn4)CC3)C2)C1 (single isomer, unassigned) [Example 2, ethyl 6-{4-[3-(5-methoxypyrazin-2-yl)pyridin-2-yl]piperazin-1-yl}-2-azaspiro[3.4]octane-2-carboxylate]
3.87 nM | 83.7% | – | – | CCOC(=O)N1CC2(CCC(N3CCN(c4ncccc4-c4cnc(OC)cn4)CC3)C2)C1 (single isomer, unassigned) [Example 3, ethyl 6-{4-[3-(5-methoxypyrazin-2-yl)pyridin-2-yl]piperazin-1-yl}-2-azaspiro[3.4]octane-2-carboxylate]
1.45 nM | 78.4% | – | – | CCOC(=O)N1CC2(CCC(N3CCN(c4cccnc4OC(F)F)CC3)C2)C1 (single isomer, unassigned) [Example 19, ethyl 6-{4-[2-(difluoromethoxy)pyridin-3-yl]piperazin-1-yl}-2-azaspiro[3.4]octane-2-carboxylate]
9.9 nM | 75.3% | – | – | CCOC(=O)N1CC2(CCC(N3CCN(c4cccnc4OC(F)(F)F)CC3)C2)C1 (single isomer, unassigned) [Example 20, ethyl 6-{4-[2-(trifluoromethoxy)pyridin-3-yl]piperazin-1-yl}-2-azaspiro[3.4]octane-2-carboxylate]
4.01 nM | 96.8% | – | – | CCOC(=O)N1CC2(CCC(N3CCN(c4ncccc4C)CC3)C2)C1 (single isomer, unassigned) [Example 21, ethyl 6-[4-(3-methylpyridin-2-yl)piperazin-1-yl]-2-azaspiro[3.4]octane-2-carboxylate]
< 0.074 nM | 107% | – | – | CCOC(=O)N1CC2(CCC(N3CCN(c4ncccc4C4CC4)CC3)C2)C1 (single isomer, unassigned) [Example 22, ethyl 6-[4-[3-cyclopropylpyridin-2-yl)piperazin-1-yl]-2-azaspiro[3.4]octane-2-carboxylate]
143 nM | 85% | – | – | CCOC(=O)N1CCC2(CC(N3CCN(c4ncccc4-c4ccc(C#N)cn4)CC3)C2)C1 (single isomer, unassigned) [Example 23, ethyl 2-[4-(5-cyano-2,3′-bipyridin-2′-yl)piperazin-1-yl]-6-azaspiro[3.4]octane-6-carboxylate]
26.4 nM | 59.8% | – | – | CCOC(=O)N1CC2(CCC(N3CCN(c4ncc(F)cc4-c4cscn4)CC3)C2)C1 (single isomer, unassigned) [Example 26, ethyl 6-{4-[5-fluoro-3-(1,3-thiazol-4-yl)pyridin-2-yl]piperazin-1-yl}-2-azaspiro[3.4]octane-2-carboxylate]
11.4 nM | 25.1% | – | – | CCOC(=O)N1CC2(CCC(N3CCN(c4nccnc4OC)CC3)C2)C1 (single isomer, unassigned) [Example 27, ethyl 6-[4-(3-methoxypyrazin-2-yl)piperazin-1-yl]-2-azaspiro[3.4]octane-2-carboxylate]
1.28 nM | 96.2% | – | – | CCOC(=O)N1CC2(CCC(N3CCN(c4ncccc4-c4cnsn4)CC3)C2)C1 (single isomer, unassigned) [Example 34, ethyl 6-{4-[3-(1,2,5-thiadiazol-3-yl)pyridin-2-yl]piperazin-1-yl}-2-azaspiro[3.4]octane-2-carboxylate]
8.52 nM | 82.4% | – | – | CCOC(=O)N1CC2(CCC(N3CCN(c4ncccc4-c4cnc(C#N)cn4)CC3)C2)C1 (single isomer, unassigned) [Example 41, ethyl 6-{4-[3-(5-cyanopyrazin-2-yl)pyridin-2-yl]piperazin-1-yl}-2-azaspiro[3.4]octane-2-carboxylate]
– | – | 201 nM | 74% | CCOC(=O)N1CC2(CCC(N3CCN(c4cccnc4OC(F)F)CC3)C2)C1 (single isomer, unassigned) [enantiomer of Example 19, ethyl 6-{4-[2-(difluoromethoxy)pyridin-3-yl]piperazin-1-yl}-2-azaspiro[3.4]octane-2-carboxylate]
– | – | 3600 nM | 95.3% | CCOC(=O)N1CC2(CCC(N3CCN(c4cccnc4OC(F)(F)F)CC3)C2)C1 (single isomer, unassigned) [enantiomer of Example 20, ethyl 6-{4-[2-(trifluoromethoxy)pyridin-3-yl]piperazin-1-yl}-2-azaspiro[3.4]octane-2-carboxylate]
– | – | > 241 nM | 76.2% | CCOC(=O)N1CC2(CCC(N3CCN(c4ncccc4C)CC3)C2)C1 (single isomer, unassigned) [enantiomer of Example 21, ethyl 6-[4-(3-methylpyridin-2-yl)piperazin-1-yl]-2-azaspiro[3.4]octane-2-carboxylate]
– | – | 11.6 nM | 103% | CCOC(=O)N1CC2(CCC(N3CCN(c4ncccc4C4CC4)CC3)C2)C1 (single isomer, unassigned) [enantiomer of Example 22, ethyl 6-[4-(3-cyclopropylpyridin-2-yl)piperazin-1-yl]-2-azaspiro[3.4]octane-2-carboxylate]
– | – | > 10000 nM | – | CCOC(=O)N1CCC2(CC(N3CCN(c4ncccc4-c4ccc(C#N)cn4)CC3)C2)C1 (single isomer, unassigned) [enantiomer of Example 23, ethyl 2-[4-(5-cyano-2,3′-bipyridin-2′-yl)piperazin-1-yl]-6-azaspiro[3.4]octane-6-carboxylate]
– | – | 152 nM | 67.1% | CCOC(=O)N1CC2(CCC(N3CCN(c4ncc(F)cc4-c4cscn4)CC3)C2)C1 (single isomer, unassigned) [enantiomer of Example 26, ethyl 6-{4-[5-fluoro-3-(1,3-thiazol-4-yl)pyridin-2-yl]piperazin-1-yl}-2-azaspiro[3.4]octane-2-carboxylate]
– | – | > 10000 nM | – | CCOC(=O)N1CC2(CCC(N3CCN(c4nccnc4OC)CC3)C2)C1 (single isomer, unassigned) [enantiomer of Example 27, ethyl 6-[4-(3-methoxypyrazin-2-yl)piperazin-1-yl]-2-azaspiro[3.4]octane-2-carboxylate]
– | – | 347 nM | 72.3% | CCOC(=O)N1CC2(CCC(N3CCN(c4ncccc4-c4cnsn4)CC3)C2)C1 (single isomer, unassigned) [enantiomer of Example 34, ethyl 6-{4-[3-(1,2,5-thiadiazol-3-yl)pyridin-2-yl]piperazin-1-yl}-2-azaspiro[3.4]octane-2-carboxylate]
– | – | 268 nM | 52.7% | CCOC(=O)N1CC2(CCC(N3CCN(c4ncccc4-c4cnc(C#N)cn4)CC3)C2)C1 (single isomer, unassigned) [enantiomer of Example 41, ethyl 6-{4-[3-(5-cyanopyrazin-2-yl)pyridin-2-yl]piperazin-1-yl}-2-azaspiro[3.4]octane-2-carboxylate]
